Experimental data from BigSolDB 2.1.

O=C(NNC(=S)Nc1ccc(Cl)cc1)c1ccncc1
Conditions | solubility (mole fraction)
in PEG-400, 298.15 K | 0.108
in PEG-400, 308.15 K | 0.114
in PEG-400, 318.15 K | 0.12
in PEG-400, 328.15 K | 0.126
in PEG-400, 338.15 K | 0.131

solubility (mole fraction)
Conditions | 298.15 K | 308.15 K | 318.15 K | 328.15 K | 338.15 K
in ethanol | 0.000647 | 0.000693 | 0.000743 | 0.000792 | 0.000834
in ethylene glycol | 0.0077 | 0.00841 | 0.00894 | 0.00961 | 0.0104
in isopropanol | 0.00113 | 0.00121 | 0.00121 | 0.00129 | 0.00138
in propylene glycol | 0.00738 | 0.00789 | 0.00848 | 0.00909 | 0.00987
